Where “and” joins values, the source holds several entries; their conditions need not be identical. Equal entries are not always repeated.
How the values were obtained:
[1] = tested on: Plasmodium falciparum; test: Plasmodium falciparum sporozoite viability assay; assay type: functional, organism-based; settings: for IC50: Plasmodium falciparum
[2] = microbe, parasite or virus in culture; settings: Mycobacterium tuberculosis, 96 h, read-out: pIC50 (converted)
[3] = microbe, parasite or virus in culture; settings: Mycobacterium tuberculosis, 72 h, read-out: pIC50 (converted)
[4] = target: T1, Coenzyme A biosynthesis bifunctional protein CoaBC (Mycobacterium tuberculosis (strain ATCC 25618 / H37Rv), UniProt P9WNZ1); test: Biomol Green assay for MtCoaBC inhibitor, OD650 read; assay type: functional
T1 sequence (P9WNZ1 whole entry): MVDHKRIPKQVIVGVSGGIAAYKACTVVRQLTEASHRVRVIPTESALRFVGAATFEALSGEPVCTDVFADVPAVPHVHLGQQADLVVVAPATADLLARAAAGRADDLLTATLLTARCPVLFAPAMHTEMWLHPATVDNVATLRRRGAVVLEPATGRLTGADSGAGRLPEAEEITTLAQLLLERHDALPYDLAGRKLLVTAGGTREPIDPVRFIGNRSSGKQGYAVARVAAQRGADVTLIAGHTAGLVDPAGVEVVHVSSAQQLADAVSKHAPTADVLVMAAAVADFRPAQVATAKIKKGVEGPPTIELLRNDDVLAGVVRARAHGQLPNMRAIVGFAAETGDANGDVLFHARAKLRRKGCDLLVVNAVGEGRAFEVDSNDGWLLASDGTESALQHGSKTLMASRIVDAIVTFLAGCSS

[5] = target: T2, Ubiquitin-activating enzyme e1, putative (Leishmania donovani (strain BPK282A1), UniProt E9BSI1); test: Leishmania donovani Ubiquitin Activating Enzyme (LdE1); assay type: functional
T2 sequence (E9BSI1 whole entry): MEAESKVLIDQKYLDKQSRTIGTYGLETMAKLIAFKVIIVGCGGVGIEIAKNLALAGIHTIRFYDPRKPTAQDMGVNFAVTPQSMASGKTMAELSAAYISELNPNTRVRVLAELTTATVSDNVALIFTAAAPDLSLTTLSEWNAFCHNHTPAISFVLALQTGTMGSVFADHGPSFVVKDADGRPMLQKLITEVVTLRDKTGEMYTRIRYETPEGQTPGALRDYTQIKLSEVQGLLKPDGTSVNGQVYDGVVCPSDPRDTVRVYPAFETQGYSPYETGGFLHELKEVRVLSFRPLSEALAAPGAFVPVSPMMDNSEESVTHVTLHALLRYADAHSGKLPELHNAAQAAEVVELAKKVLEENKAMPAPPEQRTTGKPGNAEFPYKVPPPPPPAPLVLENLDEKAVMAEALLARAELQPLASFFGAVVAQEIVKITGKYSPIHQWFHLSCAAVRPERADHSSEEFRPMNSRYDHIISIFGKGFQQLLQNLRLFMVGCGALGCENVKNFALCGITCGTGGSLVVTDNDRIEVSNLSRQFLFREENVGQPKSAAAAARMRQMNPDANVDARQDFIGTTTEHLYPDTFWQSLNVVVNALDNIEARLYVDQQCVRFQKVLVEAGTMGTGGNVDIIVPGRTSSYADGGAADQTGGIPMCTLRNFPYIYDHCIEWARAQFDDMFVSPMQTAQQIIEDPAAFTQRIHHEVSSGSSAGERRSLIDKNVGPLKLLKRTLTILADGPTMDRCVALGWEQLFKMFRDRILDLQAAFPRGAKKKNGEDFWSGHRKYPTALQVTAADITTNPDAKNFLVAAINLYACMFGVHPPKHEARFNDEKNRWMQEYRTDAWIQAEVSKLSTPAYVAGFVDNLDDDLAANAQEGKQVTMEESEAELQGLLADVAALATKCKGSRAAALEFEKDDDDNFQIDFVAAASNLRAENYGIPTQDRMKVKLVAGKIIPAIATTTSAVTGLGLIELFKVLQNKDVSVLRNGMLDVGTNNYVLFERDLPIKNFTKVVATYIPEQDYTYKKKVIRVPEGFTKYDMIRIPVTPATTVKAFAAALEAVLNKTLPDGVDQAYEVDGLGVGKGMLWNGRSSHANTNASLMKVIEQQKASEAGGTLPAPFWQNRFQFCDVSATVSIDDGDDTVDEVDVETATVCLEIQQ

[6] = In vitro enzyme assay to detect hydrolysis of chlorophenol red-beta-D-[…] directly proportional to the number of Toxoplasma stably expressing beta-galactosidase; assay type: functional, organism-based, Toxoplasma gondii; settings: Toxoplasma gondii
[7] = tested on: Plasmodium falciparum; test: Calibr Malaria Delayed Death Assay SOP; assay type: functional, organism-based; settings: for IC50: Plasmodium falciparum
[8] = target: T3, Histidine--tRNA ligase (Leishmania infantum, UniProt A4I591); test: Leishmania infantum Histidine tRNA synthetase (LdHisRS); assay type: functional
T3 sequence (A4I591 whole entry): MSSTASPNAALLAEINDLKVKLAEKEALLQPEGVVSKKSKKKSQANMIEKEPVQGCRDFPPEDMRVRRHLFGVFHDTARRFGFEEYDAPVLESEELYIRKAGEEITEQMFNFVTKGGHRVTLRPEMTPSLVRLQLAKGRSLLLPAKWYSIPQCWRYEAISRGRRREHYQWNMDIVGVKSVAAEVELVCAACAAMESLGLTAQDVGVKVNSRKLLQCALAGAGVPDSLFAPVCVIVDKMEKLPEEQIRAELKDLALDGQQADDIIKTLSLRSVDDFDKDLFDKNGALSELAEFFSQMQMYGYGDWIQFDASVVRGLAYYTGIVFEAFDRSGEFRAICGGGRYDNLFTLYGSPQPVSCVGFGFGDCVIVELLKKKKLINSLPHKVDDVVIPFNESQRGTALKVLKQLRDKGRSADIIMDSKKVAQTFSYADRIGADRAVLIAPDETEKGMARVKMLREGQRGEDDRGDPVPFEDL

[9] = tested on: Leishmania donovani; test: Leishmania intramacrophage assay; assay type: functional, organism-based; settings: Leishmania donovani
[10] = tested on: Schistosoma mansoni; test: High throughput screening of compounds against Schistosoma mansoni motility; assay type: functional; set-up: dose or concentration left out as unconfirmed
[11] = tested on: Mycobacterium tuberculosis; test: Cornell M. t heat shock assay; assay type: functional, organism-based; settings: Mycobacterium tuberculosis

Compound	pIC50 [1]	IC50 [1] [µM]	further results
CCN1CCN(Cc2coc(-c3cccc(F)c3)n2)CC1	6.19	0.8	–
FC(F)(F)Oc1ccc(-c2noc([C@@H]3Cc4nc[nH]c4CN3)n2)cc1	6.357	0.221	IC50 [2]: > 50.1 µM; IC50 [3]: > 50.1 µM
CC(C)c1nc2cc(NC(=O)c3n[nH]c4c3CCC4)ccc2n1C	6.833 and 6.465	–	IC50 [4]: > 30.2 µM
CC[C@@H]1N(CC2CCC2)CCC[C@]12CCC(=O)N2Cc1ccncc1	–	–	IC50 [5]: > 100 µM
Cc1ccc(C(=O)N2C[C@@H]3COC[C@]3(COCc3cccnc3)C2)cn1	–	–	IC50 [5]: > 100 µM
Cc1nc(C(=O)N2C[C@@H]3COC[C@]3(COCc3cccnc3)C2)cs1	–	–	IC50 [5]: > 100 µM
O=C(c1ncccn1)N1C[C@@H]2COC[C@]2(COCc2cccnc2)C1	–	–	IC50 [5]: > 100 µM
CC(=O)Nc1ncc(S(=O)(=O)Nc2ccc3c(c2)OCCO3)s1	6.905	0.144	IC50 [6]: > 50.1 µM
CCc1n[nH]c(C(=O)NCCn2nccc2C)c1C	–	> 10.5	–
CC(C)N1CCC(Cc2cc(-c3cccc(C(=O)O)c3)ncn2)CC1	–	–	IC50 [5]: > 100 µM
CC(C)N1CCC(Cc2cncc(-c3cccc(C(=O)O)c3)n2)CC1	–	–	IC50 [5]: > 100 µM
COc1cccc(-c2noc(C3CCN(CC(N)=O)C3)n2)c1 (centres undefined)	–	> 10.5	–
COC(=O)CSCc1noc(-c2ccc(Cl)cc2)n1	6.573	0.454	IC50 [2]: > 50.1 µM; IC50 [3]: > 50.1 µM
COC(=O)CSCc1noc(-c2ccc(C)cc2)n1	6.885 and 7.313	–	IC50 [2]: > 50.1 µM; IC50 [3]: 24.4 µM
COCc1nc2cc(NCc3csc(C)n3)ccc2o1	–	–	IC50 [5]: > 100 µM
COCc1nc2cc(NCc3ncc[nH]3)ccc2o1	–	–	IC50 [5]: > 100 µM
Cc1cn2c(n1)C(CNCC1=Cc3cc(Cl)ccc3OC1)CCC2 (centres undefined)	5.932	0.908	pIC50 [7]: 5.847; IC50 [7]: 1.66 µM
Cc1cn2c(n1)C(CNCC1=Cc3ccccc3OC1)CCC2 (centres undefined)	7.385	0.0623	pIC50 [7]: 5.983; IC50 [7]: 0.903 µM
COc1cc(F)c(NCc2nc3ccccc3n2C)cc1OC	–	0.26	IC50 [8]: 59.7 µM and 57.6 µM
CC(C)C(=O)N1CCN(Cc2csc(-c3ncccn3)n2)CC1	5.96	1.42	IC50 [9]: > 50.1 µM

Compound	pIC50 [1]	IC50 [1] [µM]	further results
Cc1ccsc1-c1cccc(-c2ccn(CC3CCNC3)n2)c1 (centres undefined)	5.798	2.58	IC50 [2]: 21.3 µM; IC50 [3]: 23.8 µM
CC(C)(C)n1cc(C2=CCN(CCc3ccccc3)CC2)cn1	5.875	1.53	pIC50 [7]: 6.257; IC50 [7]: 0.571 µM; Percent Effect [10]: 26.35%
c1cnc(-c2nc(CN3CCN(CC4CC4)CC3)cs2)nc1	5.511	2.26	IC50 [9]: > 50.1 µM
CCc1noc(CN(Cc2ccc3c(c2)OCO3)C2CCCC2)n1	5.474 and 5.085	–	–
Cn1cnc2c1CCN(Cc1csc(-c3ccccc3F)n1)C2	6.45	0.363	–
Cc1cccc(NC2CCN(C(=O)Nc3ccc(F)c(F)c3)CC2)n1	–	7.62	IC50 [11]: > 49 µM
CCn1ncc2c1CCCC2NCc1cccc2c1OCO2 (centres undefined)	5.451	4.37	–
CC(=O)Nc1nc(C(=O)N2CCCC(n3cncn3)C2)cs1 (centres undefined)	5.727	3.37	–
Cc1cc(C)n(CC2CN(Cc3nc4ccccc4s3)CCO2)n1 (centres undefined)	6.064	1.72	–
CCn1cc(NC(=O)Nc2ccc3c(c2)OCCO3)cn1	7.305 and 6.856	–	–
CC(C)(C)c1cn2nc(N3CCCC(Cn4cncn4)C3)sc2n1 (centres undefined)	4.991	> 10.5	–
c1ccc2sc(CN3CCCC3c3noc(C4CC4)n3)nc2c1 (centres undefined)	5.79 and 6.107	–	–
CC1CCCN(Cc2csc(-c3ncccn3)n2)CC1 (centres undefined)	5.365	4.8	–
CC(C)c1nc2c(n1C)CCN(Cc1nc(-c3ccsc3)no1)C2	5.081 and 5.405	–	–
CN1CCOC(CNC(=O)CCCOc2ccccc2F)C1 (centres undefined)	5.757 and 6.214	–	–
Cc1c(F)cc(C(=O)O)cc1S(=O)(=O)Nc1ccc2c(c1)OCCO2	5.599	3.79	–
c1ccc(-c2noc(CN3CCc4cncnc4C3)n2)nc1	5.93 and 5.587	–	–
CC(C)c1n[nH]c(C(=O)Nc2ccnn2C(C)C)c1Br	6.017	0.97	–
Cn1cnnc1C1CCN(C(=O)CCCOc2ccccc2F)CC1	6.053	1.3	–
c1ccc2sc(CN3CCOC(Cn4cccn4)C3)nc2c1 (centres undefined)	6.078 and 6.413	–	–

Compound	pIC50 [1]	IC50 [1] [µM]	further results
c1ccc2sc(CN3CCOC(Cn4cncn4)C3)nc2c1 (centres undefined)	6.123	0.621	–
c1ccc(-c2nc(CN3CCc4c(ncn4C4CC4)C3)cs2)cc1	5.414	2.99	–
O=C(Cc1ccc2c(c1)OCCO2)N1CCCC(n2cccn2)C1 (centres undefined)	< 4.98 and 5.311	–	–
c1cc(OCc2ccc3c(c2)OCO3)ccc1CNC1CC1	–	> 10.5	–
Cc1csc(NC(=O)c2cnc(C3CCCN3)cn2)n1.Cl (centres undefined)	7.11	0.153	IC50 [11]: > 100 µM
Cl.Clc1ccc(-c2ccc(C3CNCCO3)nc2)cc1 (centres undefined)	–	0.075	pIC50 [7]: 6.505; IC50 [7]: 0.433 µM
COc1ccc(-c2ccc(C3CNCCO3)nc2)cc1.Cl (centres undefined)	7.404	0.073	pIC50 [7]: 6.456; IC50 [7]: 0.19 µM
Cc1ccc(-c2ccc(C3CNCCO3)nc2)cc1.Cl (centres undefined)	7.716	0.0231	pIC50 [7]: 6.712; IC50 [7]: 0.108 µM
O=C(Nc1cccnc1)C1Cc2nc(-c3ccsc3)sc2N1CC1CC1.O=C(O)C(F)(F)F (centres undefined)	5.393	3	IC50 [8]: 27.4 µM and 35.2 µM
CN(C)CCNC(=O)C1Cc2nc(-c3ccccc3)sc2N1CC1CC1 (centres undefined)	–	3.59	IC50 [2]: > 50.1 µM; IC50 [3]: > 50.1 µM
O=C(Cc1ccsc1)N1C[C@@H]2COC[C@]2(COCc2cccnc2)C1	–	–	IC50 [5]: > 100 µM
Cc1ccoc1C(=O)N1C[C@@H]2COC[C@]2(COCc2cccnc2)C1	–	–	IC50 [5]: > 100 µM
Cc1ccccc1C(=O)N1C[C@@H]2COC[C@]2(COCc2cccnc2)C1	–	–	IC50 [5]: > 100 µM
O=C(c1ccccc1F)N1C[C@@H]2COC[C@]2(COCc2cccnc2)C1	–	–	IC50 [5]: > 100 µM
O=C(Cc1cccs1)N1C[C@@H]2COC[C@]2(COCc2cccnc2)C1	–	–	IC50 [5]: > 100 µM
CC[C@H]1N(CC2CCC2)CCC[C@]12CCC(=O)N2Cc1ccncc1	–	–	IC50 [5]: > 100 µM
CCCN1CCC[C@]2(CCC(=O)N2Cc2ccncc2)[C@H]1CC	–	–	IC50 [5]: > 100 µM
CC[C@@H]1N(C)CCC[C@]12CCC(=O)N2Cc1ccncc1	–	–	IC50 [5]: > 100 µM

Reference: ChEMBL document CHEMBL3988442, “University of Dundee, Small-Polar-MMV Screening Library” (2021)
